Columns and labels:
[1] = Hydrophilicity (water contact angle) of modified PET cloth; assay type: physicochemical; settings: for Contact angel: water contact angle of PET cloth modified with finishing liquid, UV 254 nm 1 minute, untreated PET 92 degrees
Procedure: (§1) The antibacterial hydrophilic compounds obtained in Examples 1-29 may be formulated into a finishing liquid having a mass concentration of 0.1-10% using water as a solvent, and the PET cloth may be impregnated and modified by the finishing liquid. After irradiation for 1 minute at ultraviolet light (wavelength: 254 nm), the antibacterial activity against Escherichia coli and Staphylococcus aureus may be tested by plate counting method, and their hydrophilicity (water contact angle of untreated PET may be 92 degrees) may be tested.
FIG. 3 illustrates a change in a contact angle of PET cloth treated or untreated by an antibacterial hydrophilic compound according to Example 13 of the present disclosure, where section (A) is a photograph of untreated PET cloth, and section (B) is a photograph of treated PET clot.

[2] = system: Staphylococcus aureus; assay: Antibacterial activity of modified PET cloth by plate counting method; assay type: cell-based; design: Antibacterial activity, Washing one time: concentration or dose not given beside the values; settings: S. aureas
Procedure: as §1

[3] = system: Escherichia coli; assay: as above; assay type: cell-based; design: Antibacterial activity, Washing one time: concentration or dose not given beside the values; settings: E. coli
Procedure: as §1

[4] = Hydrophilicity (core height) of modified PET cloth, FIG. 5; assay type: physicochemical; settings: modified PET cloth (B) vs unmodified PET (A)
From the text: FIG. 5 is a diagram illustrating hydrophilicity of PET cloth treated with an antibacterial hydrophilic compound according to Example 1 of the present disclosure.

Structure (SMILES) | water contact angle of the treated PET cloth ([1]; FIG. 3, untreated PET cloth 92 degrees) [°] | Contact angel [1] [degrees] | Antibacterial activity, Washing 50 times [2] [%] | Antibacterial activity, Washing one time [2] [%] | Antibacterial activity, Washing 50 times [3] [%] | Antibacterial activity, Washing one time [3] [%] | core height vs unmodified PET [4]
CCCCCCCCCCCC[N+](C)(C)c1ccc(C(=O)Oc2ccc(C(=O)c3ccccc3)cc2)cc1 [Example 13] | 0 | 0 | 96.9 | 99.99 | 91.7 | 99.99 | –
CCOP(=O)([O-])OCC[N+](C)(C)Cc1ccc(C(=O)c2ccccc2)cc1 [Example 3] | – | 0 | 90.2 | 99.99 | 87.8 | 99.99 | –
CC1(C)C(=O)N(CC(O)CNCc2ccc(C(=O)c3ccccc3)cc2)C(=O)N1Cl (centres unmarked) [Example 28] | – | 40 | 99.9 | 99.99 | 95.1 | 99.99 | –
C[N+](C)(CCC(=O)[O-])c1ccc(C(=O)Oc2ccc(C(=O)c3ccccc3)cc2)cc1 [Example 4] | – | 0 | 80.9 | 99.99 | 86.9 | 99.99 | –
CC1(C)C(=O)N(Cc2ccc(C(=O)c3ccccc3)cc2)C(=O)N1Cl [Example 27] | – | 50 | 99.8 | – | 94.9 | 99.99 | –
C[N+](C)(CCCS(=O)(=O)[O-])c1ccc(C(=O)c2ccc([N+](C)(C)CCCS(=O)(=O)[O-])cc2)cc1 [Example 1] | – | 0 | 92.9 | 99.99 | 88.5 | 99.99 | significantly greater
CCCCCCCCCCCC[N+](C)(C)Cc1ccc(C(=O)c2ccccc2)cc1 [Example 14] | – | 0 | 96.9 | 99.99 | 91.7 | 99.99 | –
CC1(C)C(=O)N(COC(=O)Nc2ccc(C(=O)c3ccccc3)cc2)C(C)(C)N1Cl [Example 26] | – | 45 | 99.9 | – | 97.9 | 99.99 | –
CCCCCCCC[N+](C)(C)CCOC(=O)Nc1ccc(C(=O)c2ccccc2)cc1.[Br-] [Example 11] | – | 0 | 99.9 | 99.99 | 92.8 | 99.99 | –
CCCCCCCC[N+](C)(C)Cc1cn(Cc2ccc(C(=O)c3ccccc3)cc2)nn1 [Example 19] | – | 0 | 99.6 | 99.99 | 92.8 | 99.99 | –
C[N+](C)(CCCCS(=O)(=O)[O-])CCOc1ccc(C(=O)c2ccccc2)cc1 [Example 2] | – | 0 | 89.9 | – | 86.2 | 99.99 | –
C[N+](C)(CCS(=O)(=O)[O-])Cc1ccc(C(=O)c2ccccc2)cc1 [Example 6] | – | 0 | 89.7 | – | 86.6 | 99.99 | –
CCCCCCCCCC[N+](C)(C)Cc1ccc(C(=O)c2ccc(C[N+](C)(C)CCCCCCCCCC)cc2)cc1 [Example 15] | – | 0 | 99.9 | – | 96.8 | 99.99 | –
CCCCCCCCCCCC[N+](C)(C)CCOC(=O)Nc1ccc(C)c(NC(=O)Nc2ccccc2C(=O)c2ccc(Cl)cc2)c1 [Example 18] | – | 0 | 99.9 | 99.99 | 95.8 | 99.99 | –
CCCCCCCCCC[N+](C)(C)Cc1ccc2c(c1)C(=O)c1ccccc1C2=O [Example 16] | – | 0 | 98.5 | – | 91.7 | 99.99 | –

Source: patent US11503828B2, “Antibacterial hydrophilic compound and use thereof” (SHENZHEN UNIVERSITY, priority 2017, dated 2022)
